Measured values published in US11707447B1.
“Also recorded” adds a separate entry of the source.

What was measured:
[1] = Mouse pharmacokinetic (PK) evaluation of drug metabolism to psilocin
5-HT2A receptor = target: T1, 5-HT2A receptor (Mus musculus, UniProt P35363); experiment: Drug-induced Head Twitch Response (HTR) in mice; format: in vivo; conditions: 1 mg/kg i.p., 15-to-30-minute window after dosing, vs vehicle
T1 construct: tissue Charles River; host or cells: whole animal, C57BL/6-Elite mice (brain neurons)

[2] = In vitro metabolic stability / psilocin release, human AB serum; format: in vitro ADME; conditions: AB serum
Source text: A fundamental evaluation in drug development is the assessment of absorption, distribution, metabolism, excretion, and pharmacokinetics (ADME/PK) (Eddershaw et al., 2000, Drug Discovery Today 5(9): 409-414). […] Drug stability upon exposure to human liver microsomes and liver S9 cellular fractions is a common in vitro assay to approximate in vivo, liver-based drug metabolism (Richardson et al., 2016 Drug Metabolism Letters 10:83-90). First-pass metabolism is also often approximated in vitro using intestinal microsome and cellular S9 fractions (Hatley et al., 2017, Biopharmaceuticals & Drug Disposition, 38(2):155-160). Further, it is well known that human serum, and particularly circulating serum esterases can contribute to systemic drug metabolism (Williams, F M 1987, Pharmacology and Therapeutics, 34:99-109). Many pharmacological agents are classified as prodrugs, as they undergo metabolic transformation in vivo upon administration to release the active drug compound into the systemic compartment (Zawilska J B, et al. 2013, Pharmacological Reports, 65:1-14). Psilocybin, a serotonergic psychedelic agent, is well known prodrug that is metabolized into the psychoactive product, psilocin (Dinis-Oliveira, R J 2017, Drug Metabolism Reviews, 49(1):84-91). To evaluate the capacity of test molecules to similarly serve as prodrugs of psilocin, time-dependent, metabolic stability assays using human AB serum, human intestinal microsomes (HIM), human intestinal S9 fractions (HIS9), human liver microsomes (HLM), human liver S9 fractions (HLS9), human alkaline phosphatase, and porcine esterase were performed. […] Liquid chromatography coupled mass spectrometry (LC-MS) was employed to track the conversion of the test molecules into psilocin. All intestinal and liver fractions and NADPH RapidStart reagent was purchased from Sekisui/XenoTech. Human AB serum was purchased from Sigma. […] Supernatants were analyzed for the presence of candidate prodrugs (parent molecule) and psilocin (the predicted metabolite) using Orbitrap LC-MS (Thermo Scientific) using previously described methods (Menéndez-Perdomo et al., 2021, J. Mass Spectrom., 56: e4683). […] Assay concentrations (μM) of both parent ‘prodrug’ molecule and psilocin metabolite, as quantified through LC-MS using routine standard curve procedures, were plotted as functions of assay time (minutes). The metabolism rate (T1/2) was determined from the metabolism curve plot using the one phase decay feature of GraphPad PRISM software (Version 9.2.0). The quantity of parent prodrug at time zero was set as 100%. […]

in vitro = in vitro ADME, human
Source text: A fundamental evaluation in drug development is the assessment of absorption, distribution, metabolism, excretion, and pharmacokinetics (ADME/PK) (Eddershaw et al., 2000, Drug Discovery Today 5(9): 409-414). […] Drug stability upon exposure to human liver microsomes and liver S9 cellular fractions is a common in vitro assay to approximate in vivo, liver-based drug metabolism (Richardson et al., 2016 Drug Metabolism Letters 10:83-90). First-pass metabolism is also often approximated in vitro using intestinal microsome and cellular S9 fractions (Hatley et al., 2017, Biopharmaceuticals & Drug Disposition, 38(2):155-160). Further, it is well known that human serum, and particularly circulating serum esterases can contribute to systemic drug metabolism (Williams, F M 1987, Pharmacology and Therapeutics, 34:99-109). Many pharmacological agents are classified as prodrugs, as they undergo metabolic transformation in vivo upon administration to release the active drug compound into the systemic compartment (Zawilska J B, et al. 2013, Pharmacological Reports, 65:1-14). Psilocybin, a serotonergic psychedelic agent, is well known prodrug that is metabolized into the psychoactive product, psilocin (Dinis-Oliveira, R J 2017, Drug Metabolism Reviews, 49(1):84-91). To evaluate the capacity of test molecules to similarly serve as prodrugs of psilocin, time-dependent, metabolic stability assays using human AB serum, human intestinal microsomes (HIM), human intestinal S9 fractions (HIS9), human liver microsomes (HLM), human liver S9 fractions (HLS9), human alkaline phosphatase, and porcine esterase were performed. […] Liquid chromatography coupled mass spectrometry (LC-MS) was employed to track the conversion of the test molecules into psilocin. All intestinal and liver fractions and NADPH RapidStart reagent was purchased from Sekisui/XenoTech. Human AB serum was purchased from Sigma. For intestine and liver metabolism assays, 2.5 μM candidate compounds were incubated in 400 μg/ml of each cellular fraction (HLM, HLS9, HIM, or HIS9) in 50 mM potassium phosphate buffer (pH 7.4) containing 3 mM MgCl2 and 1 mM EDTA supplemented with NADPH RapidStart at 37° C. Samples were taken at the start of the assay, and at every 20 minutes for 2 hours. Time-point samples were precipitated with 1:1 volume of acetonitrile to quench the reaction before centrifugation at 4000×g for 20 minutes. Supernatants were analyzed for the presence of candidate prodrugs (parent molecule) and psilocin (the predicted metabolite) using Orbitrap LC-MS (Thermo Scientific) using previously described methods (Menéndez-Perdomo et al., 2021, J. Mass Spectrom., 56: e4683). The serum assays were carried out in 10% human AB serum in 50 mM potassium phosphate buffer (pH 7.4) containing 3 mM MgCl2 and 1 mM EDTA. Bovine alkaline phosphatase assays were carried out using one unit of purified enzyme in 50 mM potassium phosphate buffer (pH 7.4) containing 3 mM MgCl2 and 1 mM EDTA. Porcine esterase assays were carried out using one unit of purified enzyme in 50 mM potassium phosphate buffer (pH 7.4) containing 3 mM MgCl2 and 1 mM EDTA. Assay concentrations (μM) of both parent ‘prodrug’ molecule and psilocin metabolite, as quantified through LC-MS using routine standard curve procedures, were plotted as functions of assay time (minutes). The metabolism rate (T1/2) was determined from the metabolism curve plot using the one phase decay feature of GraphPad PRISM software (Version 9.2.0). The quantity of parent prodrug at time zero was set as 100%.
Positive controls were first tested to ensure that assays were functioning properly.

[3] = Stability in enzyme-free control buffer; format: in vitro ADME; conditions: enzyme-free buffer pH 7.4
Source text: A fundamental evaluation in drug development is the assessment of absorption, distribution, metabolism, excretion, and pharmacokinetics (ADME/PK) (Eddershaw et al., 2000, Drug Discovery Today 5(9): 409-414). […] Drug stability upon exposure to human liver microsomes and liver S9 cellular fractions is a common in vitro assay to approximate in vivo, liver-based drug metabolism (Richardson et al., 2016 Drug Metabolism Letters 10:83-90). First-pass metabolism is also often approximated in vitro using intestinal microsome and cellular S9 fractions (Hatley et al., 2017, Biopharmaceuticals & Drug Disposition, 38(2):155-160). […] Supernatants were analyzed for the presence of candidate prodrugs (parent molecule) and psilocin (the predicted metabolite) using Orbitrap LC-MS (Thermo Scientific) using previously described methods (Menéndez-Perdomo et al., 2021, J. Mass Spectrom., 56: e4683). […] Assay concentrations (μM) of both parent ‘prodrug’ molecule and psilocin metabolite, as quantified through LC-MS using routine standard curve procedures, were plotted as functions of assay time (minutes). The metabolism rate (T1/2) was determined from the metabolism curve plot using the one phase decay feature of GraphPad PRISM software (Version 9.2.0). The quantity of parent prodrug at time zero was set as 100%.

[4] = 1 mg/kg oral of administered compound, mean ± SD
[5] = 3 mg/kg oral of administered compound, mean ± SD
[6] = 10 mg/kg oral of administered compound, mean ± SD

T1 sequence (P35363 whole entry): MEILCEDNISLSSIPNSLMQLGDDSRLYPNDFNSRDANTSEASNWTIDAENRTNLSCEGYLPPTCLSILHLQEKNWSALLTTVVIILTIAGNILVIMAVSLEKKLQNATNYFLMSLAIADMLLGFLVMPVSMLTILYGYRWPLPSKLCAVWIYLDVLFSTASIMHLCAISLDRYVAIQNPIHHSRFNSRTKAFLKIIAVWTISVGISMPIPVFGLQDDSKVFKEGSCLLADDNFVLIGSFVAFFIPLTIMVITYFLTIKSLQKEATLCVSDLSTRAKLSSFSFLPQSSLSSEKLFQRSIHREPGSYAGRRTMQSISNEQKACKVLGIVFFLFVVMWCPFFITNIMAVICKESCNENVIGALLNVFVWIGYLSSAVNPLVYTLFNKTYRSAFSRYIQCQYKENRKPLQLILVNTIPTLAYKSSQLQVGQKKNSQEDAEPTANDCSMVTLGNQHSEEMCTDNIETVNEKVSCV

CN(C)CCc1c[nH]c2cccc(OC(=O)OCc3ccccc3)c12 [B(II), reference compound]
Plasma concentration of psilocin ([1]; 1 mg/kg oral of administered compound, 0.25 h, mean ± SD): 19.7 ± 5.50 ng/mL
Plasma concentration of psilocin ([1]; 1 mg/kg oral of administered compound, 0.5 h, mean ± SD): 11.9 ± 2.03 ng/mL
Plasma concentration of psilocin ([1]; 1 mg/kg oral of administered compound, 1 h, mean ± SD): 4.63 ± 0.788 ng/mL
Plasma concentration of psilocin ([1]; 1 mg/kg oral of administered compound, 2 h, mean ± SD): 2.20 ± 0.850 ng/mL
Plasma concentration of psilocin ([1]; 1 mg/kg oral of administered compound, 4 h, mean ± SD): 2.05 ± 0.359 ng/mL
Plasma concentration of psilocin ([1]; 1 mg/kg oral of administered compound, 6 h, mean ± SD): 0.739 ± 0.288 ng/mL
Plasma concentration of psilocin ([1]; 1 mg/kg oral of administered compound, 8 h, mean ± SD): 0.453 ± 0.0460 ng/mL
AUC0-tlast/Dose (plasma psilocin) [1, 4]: 21.0 ± 1.55 kg·ng·h/mL/mg
Cmax/Dose (plasma psilocin) [1, 4]: 19.7 ± 5.50 kg·ng/mL/mg
Plasma concentration of psilocin ([1]; 3 mg/kg oral of administered compound, 0.25 h, mean ± SD): 55.6 ± 8.67 ng/mL
Plasma concentration of psilocin ([1]; 3 mg/kg oral of administered compound, 0.5 h, mean ± SD): 32.3 ± 4.98 ng/mL
Plasma concentration of psilocin ([1]; 3 mg/kg oral of administered compound, 1 h, mean ± SD): 9.29 ± 3.05 ng/mL
Plasma concentration of psilocin ([1]; 3 mg/kg oral of administered compound, 2 h, mean ± SD): 7.67 ± 0.921 ng/mL
Plasma concentration of psilocin ([1]; 3 mg/kg oral of administered compound, 4 h, mean ± SD): 6.76 ± 2.13 ng/mL
Plasma concentration of psilocin ([1]; 3 mg/kg oral of administered compound, 6 h, mean ± SD): 2.41 ± 0.845 ng/mL
Plasma concentration of psilocin ([1]; 3 mg/kg oral of administered compound, 8 h, mean ± SD): 0.722 ± 0.368 ng/mL
AUC0-tlast/Dose (plasma psilocin) [1, 5]: 20.3 ± 2.78 kg·ng·h/mL/mg
Cmax/Dose (plasma psilocin) [1, 5]: 18.5 ± 2.89 kg·ng/mL/mg
Plasma concentration of psilocin ([1]; 10 mg/kg oral of administered compound, 0.25 h, mean ± SD): 306 ± 34.6 ng/mL
Plasma concentration of psilocin ([1]; 10 mg/kg oral of administered compound, 0.5 h, mean ± SD): 125 ± 16.3 ng/mL
Plasma concentration of psilocin ([1]; 10 mg/kg oral of administered compound, 1 h, mean ± SD): 49.6 ± 10.5 ng/mL
Plasma concentration of psilocin ([1]; 10 mg/kg oral of administered compound, 2 h, mean ± SD): 20.7 ± 1.42 ng/mL
Plasma concentration of psilocin ([1]; 10 mg/kg oral of administered compound, 4 h, mean ± SD): 31.4 ± 6.34 ng/mL
Plasma concentration of psilocin ([1]; 10 mg/kg oral of administered compound, 6 h, mean ± SD): 11.5 ± 1.43 ng/mL
Plasma concentration of psilocin ([1]; 10 mg/kg oral of administered compound, 8 h, mean ± SD): 6.38 ± 2.98 ng/mL
Plasma concentration of psilocin ([1]; 10 mg/kg oral of administered compound, 24 h, mean ± SD): 0.104 ng/mL
AUC0-tlast/Dose (plasma psilocin) [1, 6]: 28.2 ± 4.12 kg·ng·h/mL/mg
Cmax/Dose (plasma psilocin) [1, 6]: 30.6 ± 3.46 kg·ng/mL/mg
Head Twitch Response (in words) (5-HT2A receptor): elicit head twitching
metabolic stability / conversion to psilocin (in words) [2]: failed completely to dissociate
metabolic stability / conversion to psilocin (in words) (in vitro; HLM): did not readily dissociate to psilocin under any conditions
metabolic stability / conversion to psilocin (in words) (in vitro; HLS9): did not readily dissociate to psilocin under any conditions

CN(C)CCc1c[nH]c2cccc(OP(=O)(O)O)c12 [psilocybin, reference compound]
Plasma concentration of administered (parent) compound ([1]; 1 mg/kg i.v., 0.5 h, individual mice): No Peak
Plasma concentration of administered (parent) compound ([1]; 1 mg/kg i.v., 1 h, individual mice): No Peak
Plasma concentration of administered (parent) compound ([1]; 1 mg/kg i.v., 2 h, individual mice): No Peak
Plasma concentration of administered (parent) compound ([1]; 1 mg/kg i.v., 4 h, individual mice): No Peak
Plasma concentration of administered (parent) compound ([1]; 1 mg/kg i.v., 6 h, individual mice): No Peak
Plasma concentration of administered (parent) compound ([1]; 1 mg/kg i.v., 8 h, individual mice): No Peak
tmax (parent compound in plasma) ([1]; 1 mg/kg i.v., individual mice): 5 min
tmax (parent compound in plasma) ([1]; 1 mg/kg i.v., mean ± SD): 5 ± 0 min
Plasma concentration of psilocin ([1]; 1.56 mg/kg oral of administered compound, 24 h, individual mice): BLQ
Plasma concentration of psilocin ([1]; 3 mg/kg oral of administered compound, 24 h, individual mice): BLQ
concentration at 5 min ([1]; male, C57Bl/6, mouse, plasma, intravenous, 1 mg/kg, Plasma concentration of administered (parent) compound, 1 mg/kg i.v., 5 min, mean ± SD): 144 ± 167 ng/mL
concentration at 0.25 h ([1]; male, C57Bl/6, mouse, plasma, intravenous, 1 mg/kg, Plasma concentration of administered (parent) compound, 1 mg/kg i.v., 0.25 h, mean ± SD): 13.2 ± 12.5 ng/mL
concentration at 0.5 h ([1]; male, C57Bl/6, mouse, plasma, intravenous, 1 mg/kg, Plasma concentration of administered (parent) compound, 1 mg/kg i.v., 0.5 h, mean ± SD): 4.28 ng/mL
concentration at 1 h ([1]; male, C57Bl/6, mouse, plasma, intravenous, 1 mg/kg, Plasma concentration of administered (parent) compound, 1 mg/kg i.v., 1 h, individual mice): 1.21 ng/mL
concentration at 1 h ([1]; male, C57Bl/6, mouse, plasma, intravenous, 1 mg/kg, Plasma concentration of administered (parent) compound, 1 mg/kg i.v., 1 h, mean): 1.21 ng/mL
concentration at 8 h ([1]; male, C57Bl/6, mouse, plasma, intravenous, 1 mg/kg, Plasma concentration of administered (parent) compound, 1 mg/kg i.v., 8 h, individual mice): 2.54 ng/mL
Cmax ([1]; male, C57Bl/6, mouse, plasma, iv, 1 mg/kg, Cmax (parent compound in plasma), 1 mg/kg i.v., mean ± SD): 144 ± 167 ng/mL
detectability of administered compound in plasma (in words) ([1]; oral vs i.v. dosing): only detectable in i.v. administered animals; also recorded: not detectable in orally administered animals at any dose
stability in assay buffer (in words) [3]: stability of psilocybin was confirmed in assay buffer
metabolic stability / conversion to psilocin (in words) [2]: stable in serum with no conversion to psilocin
metabolic stability / conversion to psilocin (in words) (in vitro; HLM): stable in liver fractions with no conversion to psilocin
metabolic stability / conversion to psilocin (in words) (in vitro; HLS9): stable in liver fractions with no conversion to psilocin
